pEC50, pIC50: −log10 of the molar value. Read-outs that look alike come from different tables or passages of the source.
What was measured:
Cell Necrosis = test: Cell necrosis assay / cell viability assay (necrosis inhibitor activity); format: cell-based
Human RIP1 kinase = target: T1, Human RIP1 kinase (Homo sapiens, UniProt Q13546); test: Human RIP1 kinase assay; format: biochemical; conditions: representative, exemplary data
T1 sequence (Q13546 1-671): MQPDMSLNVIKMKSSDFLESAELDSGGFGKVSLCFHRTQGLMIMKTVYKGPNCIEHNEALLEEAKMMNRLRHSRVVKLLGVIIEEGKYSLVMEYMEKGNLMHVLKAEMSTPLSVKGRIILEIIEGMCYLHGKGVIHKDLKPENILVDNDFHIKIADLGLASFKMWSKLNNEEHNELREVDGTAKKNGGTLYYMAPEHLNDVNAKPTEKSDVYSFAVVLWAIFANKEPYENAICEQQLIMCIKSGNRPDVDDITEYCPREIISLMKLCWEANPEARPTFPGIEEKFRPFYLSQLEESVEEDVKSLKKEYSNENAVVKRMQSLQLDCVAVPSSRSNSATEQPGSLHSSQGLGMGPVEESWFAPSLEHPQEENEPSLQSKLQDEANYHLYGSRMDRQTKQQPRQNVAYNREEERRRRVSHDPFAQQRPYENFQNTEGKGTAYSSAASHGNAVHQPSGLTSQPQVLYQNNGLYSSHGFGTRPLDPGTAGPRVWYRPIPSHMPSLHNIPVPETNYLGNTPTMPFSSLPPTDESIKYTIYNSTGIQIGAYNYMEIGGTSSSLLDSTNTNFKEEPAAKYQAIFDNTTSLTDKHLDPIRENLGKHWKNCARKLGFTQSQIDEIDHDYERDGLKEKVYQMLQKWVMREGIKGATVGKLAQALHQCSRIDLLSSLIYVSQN

[1] = necrosis inhibitor activity, EC data for 14-191 extrapolated, read-out: EC50
[2] = representative, exemplary data, read-out: Cell viability assay, EC50
[3] = necrosis inhibitor activity, compounds outside 14-191, read-out: EC50

NC(=O)c1csc(OC2CN(C(=O)N3N=CCC3c3cc(F)cc(F)c3)C2)n1 (stereo not drawn) [Compound 132, 2-((1-(5-(3,5-difluorophenyl)-4,5-dihydro-1H-pyrazole-1-carbonyl)azetidin-3-yl)oxy)thiazole-4-carboxamide]
pEC50 (Cell Necrosis; [1]): 6.00 to 9.00
pEC50 (Cell Necrosis; [2]): 7.00 to 9.00
pIC50 (Human RIP1 kinase): > 7.00

O=C(NC1Cc2ccccc2C1)N1N=CCC1c1ccccc1 (stereo not drawn) [Compound 14, N-(2,3-dihydro-H-inden-2-yl)-5-phenyl-4,5-dihydro-1H-pyrazole-1-carboxamide]
pEC50 (Cell Necrosis; [1]): 6.00 to 9.00
pEC50 (Cell Necrosis; [2]): 6.00 to 9.00
pIC50 (Human RIP1 kinase): 6.00 to 7.00

O=C(N1CCC1)N1N=CCC1c1ccccc1 (stereo not drawn) [Compound 1, azetidin-1-yl(5-phenyl-4,5-dihydro-1H-pyrazol-1-yl)methanone]
pEC50 (Cell Necrosis; [3]): 5.00 to 6.00
pEC50 (Cell Necrosis; [2]): 5.00 to 9.00
pIC50 (Human RIP1 kinase): ~6.00

O=C(N1CC(Oc2ccc(F)cc2F)C1)N1OCC[C@H]1c1ccccc1 [Compound 80, (S)-(3-(2,4-difluorophenoxy)azetidin-1-yl)(3-phenylisoxazolidin-2-yl)methanone]
pEC50 (Cell Necrosis; [1]): 6.00 to 9.00
pEC50 (Cell Necrosis; [2]): 7.00 to 9.00
pIC50 (Human RIP1 kinase): > 7.00

O=C(N1CC[C@@H](Oc2ccccc2)C1)N1N=CCC1c1ccccc1 (single isomer, unassigned) [Compound 26B]
pEC50 (Cell Necrosis; [1]): 5.00 to 6.00
pEC50 (Cell Necrosis; [2]): < 6.00
pIC50 (Human RIP1 kinase): < 6.00

O=C(N1CC(Oc2ccc(F)cc2F)C1)N1N=CCC1c1cc(F)cc(F)c1 (stereo not drawn) [Compound 76, (3-(2,4-difluorophenoxy)azetidin-1-yl)(5-(3,5-difluorophenyl)-4,5-dihydro-1H-pyrazol-1-yl)methanone]
pEC50 (Cell Necrosis; [1]): 6.00 to 9.00
pEC50 (Cell Necrosis; [2]): 7.00 to 9.00
pIC50 (Human RIP1 kinase): > 7.00

C[C@H]1CN(c2ccc(F)cn2)CCN1C(=O)N1N=CCC1c1ccccc1 (stereo partly drawn) [Compound 115A, ((S)-4-(5-fluoropyridin-2-yl)-2-methylpiperazin-1-yl)(5-phenyl-4,5-dihydro-1H-pyrazol-1-yl)methanone]
pEC50 (Cell Necrosis; [1]): 6.00 to 9.00

O=C(N1CC(Oc2ccc3cn[nH]c3c2)C1)N1N=CCC1c1cc(F)cc(F)c1 (stereo not drawn) [Compound 182]
pEC50 (Cell Necrosis; [1]): 6.00 to 9.00

C[C@@H]1CN(c2ncc(F)cn2)C[C@H](C)N1C(=O)N1N=CCC1c1ccccc1 (stereo partly drawn) [Compound 28, ((2R,6S)-4-(5-fluoropyrimidin-2-yl)-2,6-dimethylpiperazin-1-yl)(5-phenyl-4,5-dihydro-1H-pyrazol-1-yl)methanone]
pEC50 (Cell Necrosis; [1]): 6.00 to 9.00

NC(=O)c1nccc(O[C@@H]2CCN(C(=O)N3N=CC[C@H]3c3cc(F)cc(F)c3)C2)n1 [Compound 364, 4-(((R)-1-((S)-5-(3,5-difluorophenyl)-4,5-dihydro-1H-pyrazole-1-carbonyl)pyrrolidin-3-yl)oxy)pyrimidine-2-carboxamide]
pEC50 (Cell Necrosis; [3]): 6.00 to 9.00

N#Cc1csc(OC2CN(C(=O)N3N=CCC3c3ccccc3)C2)n1 (stereo not drawn) [Compound 121, 2-((1-(5-phenyl-4,5-dihydro-1H-pyrazole-1-carbonyl)azetidin-3-yl)oxy)thiazole-4-carbonitrile]
pEC50 (Cell Necrosis; [1]): 6.00 to 9.00

C[C@H]1CN(c2ncc(F)cn2)CCN1C(=O)N1N=CCC1c1ccccc1 (stereo in doubt) [Compound 111B, (S)-(4-(5-fluoropyrimidin-2-yl)-2-methylpiperazin-1-yl)(5-phenyl-4,5-dihydro-1H-pyrazol-1-yl)methanone]
pEC50 (Cell Necrosis; [1]): 5.00 to 6.00

O=C(N1CC(=Cc2ccc3c(c2)NC(=O)C3(F)F)C1)N1N=CC[C@H]1c1cc(F)cc(F)c1 [Compound 283, (S)-6-((1-(5-(3,5-difluorophenyl)-4,5-dihydro-1H-pyrazole-1-carbonyl)azetidin-3-ylidene)methyl)-3,3-difluoroindolin-2-one]
pEC50 (Cell Necrosis; [3]): 6.00 to 9.00

O=C(N1CCN(Cc2ccccc2)CC1)N1N=CCC1c1ccccc1 (stereo not drawn) [Compound 97, (4-benzylpiperazin-1-yl)(5-phenyl-4,5-dihydro-1H-pyrazol-1-yl)methanone]
pEC50 (Cell Necrosis): 5.00 to 6.00

C[C@H]1CN(c2ncc(F)cn2)CCN1C(=O)N1OCC[C@H]1c1ccccc1 [Compound 109, ((S)-4-(5-fluoropyrimidin-2-yl)-2-methylpiperazin-1-yl)((S)-3-phenylisoxazolidin-2-yl)methanone]
pEC50 (Cell Necrosis; [1]): 6.00 to 9.00

Cc1cnc(N2CCN(C(=O)N3N=CCC3c3ccccc3)CC2)s1 (stereo not drawn) [Compound 106, (4-(5-methylthiazol-2-yl)piperazin-1-yl)(5-phenyl-4,5-dihydro-1H-pyrazol-1-yl)methanone]
pEC50 (Cell Necrosis; [1]): 5.00 to 6.00

O=C(N1CC(Oc2ccc(OCc3ccccc3)nc2)C1)N1N=CCC1c1cc(F)cc(F)c1 (stereo not drawn) [Compound 211, (3-((6-(benzyloxy)pyridin-3-yl)oxy)azetidin-1-yl)(5-(3,5-difluorophenyl)-4,5-dihydro-1H-pyrazol-1-yl)methanone]
pEC50 (Cell Necrosis; [3]): 6.00 to 9.00

O=C(N1CC(Oc2ccc(F)cn2)C1)N1N=CCC1c1ccccc1 (stereo not drawn) [Compound 72, (3-((5-fluoropyridin-2-yl)oxy)azetidin-1-yl)(5-phenyl-4,5-dihydro-1H-pyrazol-1-yl)methanone]
pEC50 (Cell Necrosis; [1]): 6.00 to 9.00

C[C@H]1CN(c2ncc(Cl)cn2)CCN1C(=O)N1N=CCC1c1ccccc1 (stereo partly drawn) [Compound 113A, ((S)-4-(5-chloropyrimidin-2-yl)-2-methylpiperazin-1-yl)(5-phenyl-4,5-dihydro-1H-pyrazol-1-yl)methanone]
pEC50 (Cell Necrosis; [1]): 6.00 to 9.00

CC(c1ccccc1)C1CN(C(=O)N2N=CCC2c2ccccc2)C1 (stereo not drawn) [Compound 124, (5-phenyl-4,5-dihydro-1H-pyrazol-1-yl)(3-(1-phenylethyl)azetidin-1-yl)methanone]
pEC50 (Cell Necrosis; [1]): 5.00 to 6.00

O=C(N1CC(Oc2ccccc2F)C1)N1N=CCC1c1ccccc1 (stereo not drawn) [Compound 60, (3-(2-fluorophenoxy)azetidin-1-yl)(5-phenyl-4,5-dihydro-1H-pyrazol-1-yl)methanone]
pEC50 (Cell Necrosis; [1]): 6.00 to 9.00

O=C(N1CCCC1)N1N=CCC1c1ccccc1 (stereo not drawn) [Compound 6, (5-phenyl-4,5-dihydro-1H-pyrazol-1-yl)(pyrrolidin-1-yl)methanone]
pEC50 (Cell Necrosis; [3]): 6.00 to 9.00

CC1Oc2ccc(OC3CN(C(=O)N4N=CC[C@H]4c4cc(F)cc(F)c4)C3)cc2NC1=O (stereo partly drawn) [Compound 349, 6-((1-((S)-5-(3,5-difluorophenyl)-4,5-dihydro-1H-pyrazole-1-carbonyl)azetidin-3-yl)oxy)-2-methyl-2H-benzo[b][1,4]oxazin-3(4H)-one]
pEC50 (Cell Necrosis; [3]): 6.00 to 9.00

C[C@H]1CN(c2ncc(F)cn2)CCN1C(=O)N1N=CCC1c1cccc(F)c1 (stereo partly drawn) [Compound 117A, ((S)-5-(3-fluorophenyl)-4,5-dihydro-H-pyrazol-1-yl)((S)-4-(5-fluoropyrimidin-2-yl)-2-methylpiperazin-1-yl)methanone]
pEC50 (Cell Necrosis; [1]): 6.00 to 9.00

O=C(N1CC(=Cc2cc3[nH]c(=O)oc3cc2F)C1)N1N=CC[C@H]1c1cc(F)cc(F)c1 [Compound 372, (S)-5-((1-(5-(3,5-difluorophenyl)-4,5-dihydro-1H-pyrazole-1-carbonyl)azetidin-3-yildene)methyl)-6-fluorobenzo[d]oxazol-2(3H)-one]
pEC50 (Cell Necrosis; [3]): 6.00 to 9.00

N#Cc1cc(Cl)nc(O[C@H]2CCN(C(=O)N3N=CC[C@H]3c3cc(F)cc(F)c3)C2)c1 [Compound 330, 2-chloro-6-(((S)-1-((S)-5-(3,5-difluorophenyl)-4,5-dihydro-1H-pyrazole-1-carbonyl)pyrrolidin-3-yl)oxy)isonicotinonitrile]
pEC50 (Cell Necrosis; [3]): 6.00 to 9.00

O=C(N1CC(C(F)c2ccc(F)cc2F)C1)N1N=CCC1c1cc(F)cc(F)c1 (stereo not drawn) [Compound 134, (5-(3,5-difluorophenyl)-4,5-dihydro-1H-pyrazol-1-yl)(3-((2,4-difluorophenyl)fluoromethyl)azetidin-1-yl)methanone]
pEC50 (Cell Necrosis; [1]): 6.00 to 9.00

N#Cc1cccc(N2CCN(C(=O)N3N=CC[C@H]3c3cc(F)cc(F)c3)CC2)n1 [Compound 233, (S)-6-(4-(5-(3,5-difluorophenyl)-4,5-dihydro-1H-pyrazol-1-carbonyl)piperazin-1-yl)picolinonitrile]
pEC50 (Cell Necrosis; [3]): 6.00 to 9.00

O=C(N1CC(=Cc2ccc3oncc3c2)C1)N1N=CC[C@H]1c1cc(F)cc(F)c1 [Compound 318, (S)-(3-(benzo[d]isoxazol-5-ylmethylene)azetidin-1-yl)(5-(3,5-difluorophenyl)-4,5-dihydro-1H-pyrazol-1-yl)methanone]
pEC50 (Cell Necrosis; [3]): 6.00 to 9.00

O=C1COc2cccc(O[C@@H]3CCN(C(=O)N4N=CC[C@H]4c4cc(F)cc(F)c4)C3)c2N1 [Compound 243, 5-(((R)-1-((S)-5-(3,5-difluorophenyl)-4,5-dihydro-1H-pyrazole-1-carbonyl)pyrrolidin-3-yl)oxy)-2H-benzo[b][1,4]oxazin-3(4H)-one]
pEC50 (Cell Necrosis; [3]): 6.00 to 9.00

O=C(N1CC(Oc2ccc(Cl)nc2F)C1)N1N=CC[C@H]1c1cc(F)cc(F)c1 [Compound 338, (S)-(3-((6-chloro-2-fluoropyridin-3-yl)oxy)azetidin-1-yl)(5-(3,5-difluorophenyl)-4,5-dihydro-1H-pyrazol-1-yl)methanone]
pEC50 (Cell Necrosis; [3]): 6.00 to 9.00

Cc1csc(N2CCN(C(=O)N3N=CCC3c3ccccc3)CC2)n1 (stereo not drawn) [Compound 105, (4-(4-methylthiazol-2-yl)piperazin-1-yl)(5-phenyl-4,5-dihydro-1H-pyrazol-1-yl)methanone]
pEC50 (Cell Necrosis; [1]): 5.00 to 6.00

CC(=O)Nc1ccnc(N2CCN(C(=O)N3N=CC[C@H]3c3cc(F)cc(F)c3)CC2)n1 [Compound 225]
pEC50 (Cell Necrosis; [3]): 6.00 to 9.00
